Experimental data as given in US11607432B2, “Probiotic compositions containing clostridiales for inhibiting inflammation” (Evelo Biosciences, Inc., priority 2014, dated 2023).
Entries after “also recorded” stand apart in the source; their conditions may differ. Like-named read-outs stand apart in the source and are kept apart here.

How the values were obtained:
[1] = system: human peripheral blood mononuclear cells (PBMCs); experiment: Cytokine release by human PBMCs incubated with commensal bacteria alone or in combination with E. faecalis (Luminex); format: cell-based; conditions: for ability to reduce/counteract the induction of pro-inflammatory cytokines by EPV 8 (incl. IL-6, MCP-1, IL-12p70, IFNγ): combination with EPV 8; for anti-inflammatory cytokine profile for a Th-1-driven condition such as GVHD: overall assessment, FIG. 11
intestinal permeability = format: in vivo, mice
[2] = human, in vivo
Description: D-xylose is a carbon source generally preferred by anaerobic bacteria. […] A parallel, double-blind, 5 cohort escalation food safety study was conducted to examine D-xylose in normal human volunteers. The study was a double-blind, single-center, parallel group study designed to evaluate the tolerability and potential microbiome changes induced by ingestion of D-xylose at 5 different amounts in healthy, adult volunteers enrolled at 1 study center in the United States (US).
Subjects were screened for eligibility within 21 days prior to the first planned ingestion of study sweetener on Day 1 (Baseline). […]
Subjects returned to the study center weekly on Days 8, 15, 22, and 28 for ingestion, tolerability, and compliance evaluations. Safety was evaluated on a continual basis through adverse events (AE) monitoring, clinical laboratory measurements, vital sign monitoring, physical examinations, electrocardiograms (ECGs), telephone follow-up, and electronic subject ingestion diaries. Stool was collected pre-ingestion and at pre-specified time points, and post-ingestion samples were evaluated for changes in the gut microbiome compared with Baseline for all subjects. […]
Safety was evaluated on a continual basis through AE monitoring, clinical laboratory measurements, vital sign monitoring, physical examinations, ECGs, telephone follow-up, and electronic subject ingestion diaries. […]

[3] = Normal human volunteer study of D-xylose: serum CRP, serum cytokines and T-cell markers; format: in vivo
Text: Blood was collected at pre-specified pre- and post-ingestion time points to evaluate C-reactive protein (CRP), serum cytokines (tumor necrosis factor alpha [TNF-α], interleukin [IL]-2, IL-6, interferon gamma [IFN-γ], and IL-10), and T-cell markers CD3, CD4, CD8, CD25, and FOXP3. Plasma was also stored and may be tested for biomarkers and/or metabolic markers for up to 7 years.
Summary statistics (n, mean, standard deviation, median, minimum, and maximum) were presented for serum concentrations of CRP, flow cytometry T-cell markers (CD3, CD4, CD8, CD25, and FOXP3), and cytokines (TNF-α, IL-2, IL-6, IFN-γ, and IL-10) as per their nominal time points.

gut microbiome = experiment: Normal human volunteer study of D-xylose: changes in the gut microbiome (stool 16S sequencing); format: in vivo; conditions: for alpha diversity of the gut microbiome: over time on study
[4] = cited from earlier work
human PBMCs = experiment: Flow cytometry of T cell populations in human PBMCs cultured with commensal bacteria; format: cell-based; conditions: compared to PBMCs alone (control); percent of CD3ε+CD4+ cells
Description: In order to determine whether exposure to commensal bacteria may polarize T cells toward a particular phenotype, flow cytometry analysis was performed on human PBMCs cultured with various commensal bacteria as described above. The cells recovered from culture were washed in phosphate-buffered saline and stained with a cocktail of fluorescently labeled antibodies against specific cell surface protein markers to allow for the detection of Th1 cells (CXCR3^+CCR6^−), Th2 cells (CXCR3^−CCR6^−), Th17 cells (CXCR3^+CCR6^+) and Tregs (CD25^+CD127^lo). Negative control wells contained PBMCs in culture medium alone and positive control wells contained PBMCs+LPS (100 ng/ml) as a known immune stimulus. The commensal bacteria examined inluded: Epv 1: R. gnavus; Epv 3: B. luti; Epv 2: E. rectale; Epv 5: B. wexlerae; Epv. 8: E. faecalis; Epv 20: B. obeum, ATCC 29174; Epv 21: B. product, ATCC 27340; Epv 24: B. hansenii, ATCC 27752. […] For example, the optimal T cell profile to address pro-inflammatory disorders such as GVHD would consist of ↑Treg, ↓Th17, ↓ or unchanged Th1, and ↑Th2. This phenotype was induced by many of the bacteria tested.

[5] = bacterium alone, 24, 48 and 72 hours
[6] = Table 1, NIAID priority pathogen category, OP or N

For Blautia luti [EPV 3], the “intrinsic inflammatory activity (induction of pro-inflammatory cytokines) compared to EPV 8” value ([1]; bacterium alone) was “relatively low intrinsic inflammatory activity”, the “induction of Th1-related cytokines (IFN-γ, IL-12p70, IL-6, IL-2, TNFα)” value [1, 5] was “minimal induction” and the “induction of monocyte, macrophage and neutrophil-related inflammatory cytokines (MCP-1, MIP1β, MIP1α, RANTES, IL-1α, IL1β, IFN-α2, IL-8)” value [1, 5] was “least inflammatory”. For the same molecule, the “countering the effect of E. faecalis (Epv 8) on monocyte, macrophage and neutrophil-related inflammatory cytokines” value ([1]; combination with E. faecalis) was “most effective”, the “counteracting induction of Th1-related cytokines by E. faecalis (Epv 8)” value ([1]; combination with E. faecalis, 24, 48 and 72 hours) was “most effective” and the “ability to reduce/counteract the induction of pro-inflammatory cytokines by EPV 8 (incl. IL-6, MCP-1, IL-12p70, IFNγ)” value [1] was “able to reduce the induction of pro-inflammatory cytokines”. For the same molecule, the “anti-inflammatory cytokine profile for a Th-1-driven condition such as GVHD” value [1] was “significantly desirable anti-inflammatory profile; also recorded: desirable anti-inflammatory cytokine profile”.

With `O=C[C@H](O)[C@@H](O)[C@H](O)CO` [D-xylose] the “basal levels of serum endotoxin” value (intestinal permeability; mouse, in vivo) was “reduced these basal levels over time; also recorded: reduces basal levels of serum endotoxin”, the “effect of xylose on the increase in serum endotoxin level caused by cipro” value (intestinal permeability; mouse, in vivo) was “appeared to counteract the increase in serum endotoxin level; also recorded: counteracts the endotoxin increase” and the “effect of xylose on the increase in serum endotoxin level caused by enro” value (intestinal permeability; mouse, in vivo) was “but not enro”. For the same molecule, the “SAEs, severe AEs, subject deaths” value [2] was “No SAEs, severe AEs, or subject deaths were reported”, the “levels of serum interferon gamma over time” value ([3]; 2 g and 15 g D-xylose cohorts, FIG. 30) was “trend for reduced levels” and the “total T-cells or any T-cell subsets over time” value ([3]; any ingestion amount) was “No consistent or clinically meaningful changes over time”. For the same molecule, the “subjects with normal serum CRP at Baseline with at least 1 post-ingestion CRP value >2.9 mg/L” value ([3]; human, in vivo) was 8.3%, the “serum cytokines (TNF-α, IL-2, IL-6, IFN-γ, IL-10) over time” value ([3]; most data points below the limit of quantitation, any ingestion amount) was “did not indicate any consistent or clinically meaningful changes over time” and the “changes in the gut microbiome, overall” value (gut microbiome; normal individuals and normal mice) was “subtle changes in the gut microbiome”. For the same molecule, the “community composition of the gut microbiome over time” value (gut microbiome; regardless of ingestion amount) was “no significant changes in community composition”, the “alpha diversity of the gut microbiome” value (gut microbiome; regardless of ingestion amount) was “no apparent significant impact” and the “alpha diversity of the gut microbiome” value (gut microbiome; regardless of ingestion amount, listed as xylose) was “no major shifts in the microbiome alpha diversity”. The “Chao diversity index (community richness) over time” value (gut microbiome; xylose TID at 1, 2, 8, 12.5 or 15 grams, FIG. 31) was “overall decrease”.

With Blautia obeum [EPV 78] the “low induction of pro-inflammatory cytokines and/or positive induction of anti-inflammatory cytokines, and ability to counteract the inflammatory activity of E. faecalis (candidate criteria)” value (shortened to “low induction”) [1] was “meeting these criteria”.

In the case of Clostridium glycolicum, the “Pathogen Status” value [4, 6] is given as “N”.

With Eubacterium rectale [EPV 2] the “induction of monocyte, macrophage and neutrophil-related inflammatory cytokines (MCP-1, MIP1β, MIP1α, RANTES, IL-1α, IL1β, IFN-α2, IL-8)” value [1, 5] was “least inflammatory” and the “countering the effect of E. faecalis (Epv 8) on monocyte, macrophage and neutrophil-related inflammatory cytokines” value ([1]; combination with E. faecalis) was “most effective”.

In the case of Clostridium paraputrificum, the “Pathogen Status” value [4, 6] is listed as “N”.

In the case of Bacteroides fragilis, the “Pathogen Status” value ([4]; Table 1, OTU list, NIAID priority pathogen category, OP or N) is listed as “N”.

For Blautia luti (BlnIX) [EPV 114], the “low induction” value [1] was “meeting these criteria”.

For Clostridium tertium, the “Pathogen Status” value [4, 6] is listed as “N”.

In the case of `CCN1CCN(c2cc3c(cc2F)c(=O)c(C(=O)O)cn3C2CC2)CC1` [enro, enrofloxacin, reference compound], the “serum endotoxin levels after antibiotic treatment” value (intestinal permeability; 0.25 g/L in drinking water day −7 to day −2, measured 2 days after a 5 day course (day 0)) is reported as “increase in serum endotoxin levels” and the “serum endotoxin levels over time after antibiotic treatment” value (intestinal permeability; by day 14) is reported as “return to baseline by day 14”.

For Eubacterium rectale [EPV 35], the “low induction” value [1] was “meeting these criteria”.

In the case of “Enterococcus faecalis [EPV 8, reference compound]”, the “induction of Th1-related cytokines (IFN-γ, IL-12p70, IL-6, IL-2, TNFα)” value [1] is given as “induced high levels”, the “proportion of T cells with a regulatory phenotype (Tregs, CD25+CD127lo)” value (shortened to “proportion of T cells”) (human PBMCs) is given as “little or no increase” and the “Pathogen Status” value ([4]; OTU of Table 1) is given as “N”.

With Blautia Hansenii ATCC27752 [EPV 24] the “proportion of T cells” value (human PBMCs) was “greatest impact”.

With Ruminococcus gnavus [EPV 1] the “eliciting Th2 cytokines (IL-13, IL-4, IL-5)” value ([1]; bacterium on its own, 24, 48 and 72 hours) was “most active” and the “eliciting Th2 cytokines (IL-13, IL-4, IL-5)” value ([1]; in the presence of E. faecalis, 24, 48 and 72 hours) was “most active”.

With Blautia wexlerae [EPV 5] the “induction of IL-10” value ([1]; 24, 48 and 72 hours) was “most potent”, the “ability to reduce/counteract the induction of pro-inflammatory cytokines by EPV 8 (incl. IL-6, MCP-1, IL-12p70, IFNγ)” value [1] was “little ability to counteract” and the “anti-inflammatory cytokine profile for a Th-1-driven condition such as GVHD” value [1] was “suboptimal anti-inflammatory profile”.

For Blautia producta ATCC 27340 [EPV 21], the “proportion of T cells” value (human PBMCs) was “greatest impact”.

For Clostridium sordellii, the “Pathogen Status” value [4, 6] is listed as “N”.
